Measured values reported in patent US10570140B2, “Selective inhibitors of protein arginine methyltransferase 5 (PRMT5)” (Prelude Therapeutics, Incorporated, priority 2017, dated 2020).
Counter-ions that a name gives are not always drawn.

Experiment: physchem
Conditions: FaSSIF buffer, 25 °C, thermodynamic from solid

solubility at 4 h: 206 µg/mL
SMILES: C[C@@]1(O)[C@@H]([C@H](O)c2ccc(Cl)c(Cl)c2)O[C@@H](n2ccc3c(N)ncnc32)[C@@H]1O [Example 48, (2R,3S,4R,5R)-5-(4-amino-7H-pyrrolo[2,3-d]pyrimidin-7-yl)-2-((R)-(3,4-dichlorophenyl)(hydroxy)methyl)-3-methyltetrahydrofuran-3,4-diol Sulfate Salt]
